In US20260216144A1, “TARGETING MB2 OF THE MYC ONCOGENE AND ITS INTERACTION WITH TRRAP IN CANCER” (priority 2019, published 2026):

What follows are compounds tested against MYC:TRRAP interaction (Homo sapiens, UniProt P01106+Q9Y4A5) (assay: MYC:TRRAP in-cell luminescence complementation assay (NanoBiT; SmB-MYC 1-190 and TRRAP 2033-2283-LgB in HeLa cells)). Settings: Table 1; 46 primary hits at 10 uM; HeLa cells; triplicate measurements.
Assay type: cell-based
Method: HeLa cells plated on Greiner 96-well TC-rated white plates with clear bottoms were used for the following measurements. Reverse transfections were carried out using LipoD293™ before cells were plated. A bluescript KS' plasmid (Addgene) was used as carrier DNA for transfections, and a pcDNA3.1 EGFP plasmid (ThermoFisher) was used as a fluorescence reporter. White light-reflecting film (USA Scientific) was used to cover the bottom of the plates for luminescence measurements. Black light-absorbing film was used to cover the top of the plates for fluorescence measurements. All measurements were taken on a SpectraMax i3 instrument (Molecular Devices).
Transfections were carried out with increasing DNA amounts (1-100 ng per well) of a CMV-driven LgB plasmid and SmB in excess or vice-versa. Background luminesce for the usable range and the amount of DNA needed for vast excess of LgB or SmB were noted. Next, complementation with vast excess either LgB or SmB was used to determine the expression of each of the indicated MYC and TRRAP constructs for a range of DNA amounts per well: 10-100 ng. An optimal ratio of DNA to equalize the expression of each MYC and TRRAP pair was calculated. Then, signal-to-noise ratios were calculated for the indicated MYC and TRRAP pairs, and the pair with the highest ratio was chosen. Finally, the chosen pair was used to determine the optimal DNA transfection mixture. It was determined to be 6.7 ng of a plasmid with a MYC construct, 60 ng of a plasmid with a TRRAP construct and 33.3 ng of the pcDNA 3.1 EGFP plasmid, for each well in a 96-well plate. Unless otherwise indicated, these were the ratios of DNA transfected for this type of assay.
HeLa cells were transfected as above using LipoD293™ with a mixture of SmB-MYC 1-190, TRRAP 2033-2283-LgB, and EGFP in CMV-driven plasmids at the same optimized ratio described above. Two days post-transfection, the media in each well was replaced with fresh media containing each compound from the NCI's sets at 25 μM. Cells were incubated for 2 h with each compound, and luminescence and fluorescence measurements were recorded for each well. Changes in luminescence were normalized to fluorescence. The following pre-plated compound sets were obtained from the NCI/DTP chemical repository and used for this screen:
These chemical sets were used to discover novel small-molecule inhibitors of the MYC:TRRAP complex. SmB-MYC 1-190, TRRAP 2033-2283-LgB, and EGFP were transfected into HeLa cells. Two days post-transfection, compounds were added to the media at 25 μM and cells were incubated for 2h. Luminescence and fluorescence were recorded for each well containing one of the compounds. Changes in luminescence measurements were normalized to fluorescence measurements.
Afterwards, only molecules that reduced luminescence levels to <50% RLU were considered. This set of 46 compounds were incubated at 10 μM with vector-expressing cells. Luminescence complementation was measured and repeated in triplicate measurements. In addition, HeLa cells expressing LgB and SmB alone were incubated with the same compounds to rule out potentially artificial results due to inhibition of luciferase or its complementation. Molecules that induces any significant reduction in luminescence (<0.6) during this control assay were not considered further. Of 2947 molecules, 17 were chosen for further testing and ordered from the NCI/DTP Open Chemical Repository. FIG. 16 describes these chosen compounds.
Using the luminescence assay above as a readout for the MYC:TRRAP interaction, we used a robotic liquid handler to evaluate 2987 additional compounds (25 μM). All primary hits were counter-screened for any activity against the luciferase enzyme itself and for any effects on the expression of the fusion proteins. We set a threshold of 50% inhibition to consider compounds further. Only 17 out of 2987 passed all these criteria (0.6%). […]

MYC:TRRAP interaction, sequence (P01106 16-205): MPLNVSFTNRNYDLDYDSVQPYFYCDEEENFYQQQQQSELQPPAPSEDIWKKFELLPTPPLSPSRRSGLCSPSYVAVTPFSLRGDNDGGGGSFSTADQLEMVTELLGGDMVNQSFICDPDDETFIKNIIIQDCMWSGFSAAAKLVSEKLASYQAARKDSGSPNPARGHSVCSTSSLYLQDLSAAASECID
MYC:TRRAP interaction, sequence (Q9Y4A5 2051-2301): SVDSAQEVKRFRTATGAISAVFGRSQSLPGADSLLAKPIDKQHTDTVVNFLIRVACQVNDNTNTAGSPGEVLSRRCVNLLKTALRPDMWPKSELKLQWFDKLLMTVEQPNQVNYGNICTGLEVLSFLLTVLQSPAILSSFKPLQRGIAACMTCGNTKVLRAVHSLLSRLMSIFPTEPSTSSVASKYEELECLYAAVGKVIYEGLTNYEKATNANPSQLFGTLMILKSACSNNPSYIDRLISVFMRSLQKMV

Row | % Inhibition 10 uM [%] | SMILES
1 | 90.89 | Cc1ccc(NC(=S)C#N)c(C)c1 [Compound 26, 1-cyano-N-(2,4-dimethylphenyl) methanethioamide]
2 | 66.32 | O=C1c2ccccc2C(=O)c2sc(Nc3ccc(Cl)cc3)nc21 [Compound 28, 2-(4-chloroanilino)benzo [f][1,3] benzothiazole-4,9-dione]
3 | 80.85 | FC(F)(F)c1cccc(-c2nc3nc(Cl)c(Cl)[nH]c-3n2)c1 [Compound 32, 5,6-dichloro-2-[3-(trifluoromethyl)phenyl]-1H-imidazo[4,5-b]pyrazine]
4 | 50.79 | CN(C)c1ccc(/C=C/C(=O)c2cc(Cl)ccc2O)cc1 [Compound 35, (E)-1-(5-chloro-2-hydroxyphenyl)-3-[4-(dimethylamino)phenyl]prop-2-en-1-one]
5 | 84.83 | Cc1ccc2c(c1)C=C/C(=C\C=C1/C=CC(=O)c3ncccc31)N2C [Compound 37, 5-[2-(1,6-dimethylquinolin-1-ium-2-yl)ethenyl]quinolin-8-ol]
6 | 76.06 | CC1(C)CCC2=C(O1)c1ccccc1C(=O)C2=O [Compound 40, 2,2-dimethyl-3,4-dihydrobenzo[h] chromene-5,6-dione]
7 | 78.97 | COc1cc(/N=N/c2cccc(S(N)(=O)=O)c2)c2ccccc2c1N [Compound 41, 3-[(4-amino-3-methoxy-naphthalen-1-yl)diazenyl] benzene-sulfonamide]
8 | 102.5 | COC(=O)[C@H]1[C@H]2C[C@@H]3c4[nH]c5ccccc5c4CCN3C[C@H]2C[C@@H](OC(=O)c2cc(OC)c(OC)c(OC)c2)[C@@H]1OC [Compound 42, methyl (1R,15S,17R,18R, 19S,20S)-18-methoxy-17-(3,4,5-trimethoxybenzoyl) oxy-1,3,11,12,14,15,16, 17,18,19,20,21-dodecahydro-yohimban-19-carboxylate]
9 | 93.68 | CN(C)c1ccc2c(c1)Sc1cc(N(C)C)ccc1N2C(=O)c1ccccc1 [Compound 44, [3,7-bis(dimethylamino)phenothiazin-10-yl]-phenylmethanone]
10 | 85.82 | COc1c2c(cc3c1C1Oc4c(ccc(O)c4CC=C(C)C)C1CO3)OC(C)(C)C=C2 (centres unmarked) [Compound 45, 21-methoxy-17,17-dimethyl-5-(3-methylbut-2-enyl)-3,12,16-trioxapentacyclo [11.8.0.02,10.04, 9.015,20] henicosa-1(13),4(9),5,7, 14,18, 20-heptaen-6-ol]

Row | SMILES | % Inhibition 10 uM [%]
11 | CC1=C(CCC(=O)O)c2cc3nc(cc4[nH]c(cc4C)cc4[nH]c(cc1n2)cc4C)C(C)=C3CCC(=O)O [Compound 27, 3-[18-(2-carboxyethyl)-3,8,13,17-tetramethyl-22,23-dihydroporphyrin-2-yl]propanoic acid] | 75.42
12 | COc1c(OC)c2c3c(nccc3c1OC)-c1cc(=O)c(OC)ccc1-2 [Compound 30] | 68.68
13 | Cc1cc2c(C(C)C)c(O)c(O)c(C=O)c2c(O)c1-c1c(C)cc2c(C(C)C)c(O)c(O)c(C=O)c2c1O [Compound 31, 7-(8-formyl-1,6,7-trihydroxy-3-methyl-5-propan-2-ylnaphthalen-2-yl)-2,3,8-trihydroxy-6-methyl-4-propan-2-ylnaphthalene-1-carbaldehyde] | 68.27
14 | CC1=C(C)C(=O)O[C@H]([C@](C)(O)[C@]2(O)CC[C@@]3(O)[C@@H]4C[C@H]5O[C@]56CC=CC(=O)[C@]6(C)[C@H]4CC[C@]23C)C1 [Compound 33, (1S,2R,7S,9R,11R, 12R,15S,16S)-15-[(1S)-1-[(2S)-4,5-dimethyl-6-oxo-2,3-dihydropyran-2-yl]-1-hydroxyethyl]-12,15-dihydroxy-2,16-dimethyl-8-oxapentacyclo [9.7.0.02, 7.07,9.012,16] octadec-4-en-3-one] | 29.74
15 | COc1cccc2c1C(=O)c1c(O)c3c(c(O)c1C2=O)C[C@@](O)(C(C)=O)C[C@@H]3OC1CC(N(Cc2ccccc2)Cc2ccccc2)C(O)C(C)O1.Cl (stereo partly drawn) [Compound 34, (7S,9S)-9-acetyl-7-[4-(dibenzylamino)-5-hydroxy-6-methyloxan-2-yl]oxy-6,9,11-trihydroxy-4-methoxy-8,10-dihydro-7H-tetracene-5,12-dione; hydrochloride] | 78.65
16 | N[C@@H](Cc1ccc2oc3cc(=O)c4ccccc4c-3nc2c1)C(=O)O.O=[N+]([O-])O [Compound 36, (2S)-2-amino-3-(5-oxobenzo[a]pheno-xazin-10-yl)propanoic acid; nitric acid] | 73.39
17 | CC1Oc2cc3c(-c4c(O)cc(O)c5c(O)c6c(cc45)OC(C)C(C)C6=O)c(O)cc(O)c3c(O)c2C(=O)C1C (centres unmarked) [Compound 38] | 76.03
18 | COc1cc2c3c(cc4ccccc4c3c1O)N(C)CC2 [Compound 39] | 73.42

Same assay, conditions: Table 2; compounds with >80% similarity to compound 10 (NSC657456); 10 uM

Row | % Inhibition 10 uM [%] | SMILES
19 | 104.5 | N=C(S)/N=N/c1c(O)[nH]c2ccccc12 [Compound 101, (2-hydroxy-1H-indol-3-yl)iminothiourea]
20 | 88.83 | N=C(/N=N/c1c(O)[nH]c2ccccc12)C(=N)/N=N/c1c(O)[nH]c2ccccc12 [Compound 103, 1-N,2-N-bis[(2-hydroxy-1H-indol-3-yl)imino]ethane-diimidamide]
21 | 123.9 | N=C(N)/N=N/c1c(O)[nH]c2ccccc12 [Compound 104, 1-[(2-hydroxy-1H-indol-3-yl)imino] guanidine]
22 | 65.25 | Oc1[nH]c2ccccc2c1/N=N/C(S)=N/c1ccccc1 [Compound 105, 1-[(2-hydroxy-1H-indol-3-yl)imino]-3-phenylthiourea]
23 | 127.3 | NC(=O)/N=N/c1c(O)n(O)c2ccccc12 [Compound 106, (1,2-dihydroxyindol-3-yl)iminourea]
24 | 112.6 | NC(=O)/N=N/c1c(O)[nH]c2ccccc12 [Compound 107, (2-hydroxy-1H-indol-3-yl)iminourea]
25 | 86.25 | CN(C)C(=S)/N=N/c1c(O)[nH]c2ccccc12 [Compound 108]
26 | 54.48 | O=[N+]([O-])c1ccc(/N=N/c2c(O)[nH]c3ccccc23)cc1 [Compound 109, 3-[(4-nitrophenyl)diazenyl]-1H-indol-2-ol]
27 | 94.76 | Cc1ccccc1/N=N/c1c(O)[nH]c2ccccc12 [Compound 1010, 3-[(2-methylphenyl)diazenyl]-1H-indol-2-ol]
28 | 64.75 | Oc1[nH]c2ccccc2c1/N=N/c1ccccc1Cl [Compound 1011, 3-[(2-chlorophenyl)diazenyl]-1H-indol-2-ol]
29 | 66.53 | Oc1[nH]c2ccccc2c1/N=N/c1ccccc1 [Compound 1012, 3-phenyldiazenyl-1H-indol-2-ol]
30 | 83.25 | O=C(/N=N/c1c(O)[nH]c2ccccc12)Nc1ccccc1 [Compound 1013, 1-[(2-hydroxy-1H-indol-3-yl)imino]-3-phenylurea]
31 | 107.3 | CCOC(=O)/N=N/c1c(O)[nH]c2ccccc12 [Compound 1014, ethyl N-[(2-hydroxy-1H-indol-3-yl)imino] carbamate]

Row | SMILES | % Inhibition 10 uM [%]
32 | N=C(/N=N/c1c(O)[nH]c2ccccc12)N[N+](=O)[O-] [Compound 102, 1-[(2-hydroxy-1H-indol-3-yl)imino]-3-nitroguanidine] | 100.4
